Laboratory results reported in ChEMBL document CHEMBL1201862, “PubChem BioAssay data set” (2004).
Calls of active or inactive are those of the source. For most assays here, no stated cut-off is given here; in the data, actives have a measured EC50 and inactives only a lower limit.

Assays:
Paired box protein Pax-8 = Paired box protein Pax-8 (Homo sapiens, UniProt Q06710); assay: PAX8 transcriptional activity inhibition in RMG-I – RMG-I cells, luciferase, cherry-pick, dose response (AID 687027); assay type: functional, cell-based;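 further: luciferase reporter driven by Pax8 target thyroperoxidase promoter measured by SteadyGlo luminescence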
INS1 = assay: INS-1E survival protection against cytokine death – cell-based, luminescence, retest, dose response (AID 449756); assay type: functional; settings: Rattus norvegicus;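 further: cell death triggered by IL-1 beta plus TNF-alpha plus IFN-gamma mixture; protective hits raise ATP signal compared with cytokine alone wells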
[1] = target: T1, Heat shock factor protein 1 (Mus musculus, UniProt P38532); assay: enhancement of HSF1-driven luciferase signal – cell-based, NIH3T3, luminescence, dose retest, confirmation (AID 435004); assay type: functional;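 further: stress induced by proteasome inhibitor MG132 added 30 min after compound; luciferase reporter driven by HSF1 response element in NIH3T3 cells; actives raise luminescence as potentiators of the MG132 stress response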
T1 sequence (P38532 whole entry): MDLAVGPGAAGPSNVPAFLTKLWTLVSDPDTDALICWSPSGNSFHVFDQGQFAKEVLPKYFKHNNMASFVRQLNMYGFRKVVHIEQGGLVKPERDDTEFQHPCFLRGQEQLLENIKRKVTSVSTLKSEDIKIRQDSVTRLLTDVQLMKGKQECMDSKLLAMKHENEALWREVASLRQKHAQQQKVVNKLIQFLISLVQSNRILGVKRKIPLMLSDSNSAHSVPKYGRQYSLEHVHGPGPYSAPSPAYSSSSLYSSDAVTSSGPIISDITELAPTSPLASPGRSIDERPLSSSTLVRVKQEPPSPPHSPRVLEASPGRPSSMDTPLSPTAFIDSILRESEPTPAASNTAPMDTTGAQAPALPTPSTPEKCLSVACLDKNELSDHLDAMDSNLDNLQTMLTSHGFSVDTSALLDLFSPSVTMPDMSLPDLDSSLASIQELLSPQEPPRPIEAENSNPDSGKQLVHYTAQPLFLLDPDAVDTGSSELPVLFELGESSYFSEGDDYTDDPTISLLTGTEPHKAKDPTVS

[2] = test system: Streptococcus sp. 'group A'; assay: Streptococcus pyogenes SK(-)GAS viability under kanamycin – luminescence, BacTiterGlo, confirmation, counter-screen for streptokinase expression inhibitor project, dose response (AID 1900); assay type: functional, organism-based
Streptokinase A = target: T2, Streptokinase A (Streptococcus pyogenes serotype M1, UniProt P10520); assay: viability-normalized secreted streptokinase activity reduction – plasminogen activation absorbance, OD405, dose response (AID 1914); assay type: functional, Streptococcus pyogenes M1 GAS;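 further: secreted streptokinase activity via plasminogen activation per viability signal from cell pellet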
T2 sequence (P10520 whole entry): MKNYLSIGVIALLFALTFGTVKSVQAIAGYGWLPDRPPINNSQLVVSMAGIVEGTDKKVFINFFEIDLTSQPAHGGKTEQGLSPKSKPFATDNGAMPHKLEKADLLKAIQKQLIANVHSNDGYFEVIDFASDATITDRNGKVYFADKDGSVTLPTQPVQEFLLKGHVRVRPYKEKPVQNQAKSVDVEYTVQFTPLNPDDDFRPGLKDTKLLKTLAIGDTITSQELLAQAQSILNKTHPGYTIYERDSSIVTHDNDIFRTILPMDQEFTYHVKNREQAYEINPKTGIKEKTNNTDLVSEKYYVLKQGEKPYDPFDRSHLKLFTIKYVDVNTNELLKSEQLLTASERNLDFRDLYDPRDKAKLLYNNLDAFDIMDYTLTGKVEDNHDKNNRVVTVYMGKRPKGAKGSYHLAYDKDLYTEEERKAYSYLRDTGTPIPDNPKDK

[3] = Trypanosoma cruzi growth suppression in host cells – NIH3T3 host cells, beta-gal luminescence, confirmation (AID 2044); assay type: functional, cell-based;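 further: intracellular parasites grown in NIH/3T3 mouse fibroblasts as host cells; luminescent beta-galactosidase reporter signal from transgenic T. cruzi replicating inside host cells; inhibitors lower the luminescence signal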
[4] = NIH3T3 cell viability loss – ATP luminescence, mouse fibroblasts, counter-screen, dose response (AID 2010); assay type: functional, cell-based;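 further: cells exposed to compound for about 90 hours before reading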
Streptococcus = assay: GAS UMAA2166 growth inhibition – luminescence, BacTiterGlo, counter-screen for streptokinase expression inhibitor project, dose response (AID 1915); assay type: functional, organism-based;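 further: potency for reduction of bacterial viability or growth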
[5] = NIH-3T3 fibroblast cytotoxicity, dose response, cytotoxicity control, cell-based, fluorescence, Alamar Blue, secondary assay (AID 2327); assay type: functional;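 further: NIH-3T3 mouse fibroblasts cultured with fluconazole at 8 µg/mL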
[6] = fluconazole-exposed Candida albicans growth modulators – fluorescence, retest, confirmation (AID 2467); assay type: functional, cell-based
[7] = viability of PTEN-deleted HCT116 cells – cell-based, HCT116 PTEN knockout, dose response (AID 1047); assay type: functional;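 further: HCT116 colon tumor cells with PTEN knocked out; cells exposed to compound for 60 hours before readout; potency for loss of cell viability measured by luminescence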
[8] = viability of HCT116 lacking mutant beta-catenin – cell-based, human colon tumor, dose response (AID 1045); assay type: functional;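 further: HCT116 colon tumor cells with beta catenin knocked out; cells exposed to compound for 60 hours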
[9] = target: T3, Corticotropin-releasing factor receptor 2/Corticotropin-releasing factor-binding protein (Homo sapiens, UniProt P24387+Q13324); assay: Dose Response confirmation of uHTS hits for small molecule antagonists of the CRF-binding protein and CRF-R2 receptor complex.; assay type: functional; settings: read-out: IC50_Mean
T3 sequence (Q13324 whole entry): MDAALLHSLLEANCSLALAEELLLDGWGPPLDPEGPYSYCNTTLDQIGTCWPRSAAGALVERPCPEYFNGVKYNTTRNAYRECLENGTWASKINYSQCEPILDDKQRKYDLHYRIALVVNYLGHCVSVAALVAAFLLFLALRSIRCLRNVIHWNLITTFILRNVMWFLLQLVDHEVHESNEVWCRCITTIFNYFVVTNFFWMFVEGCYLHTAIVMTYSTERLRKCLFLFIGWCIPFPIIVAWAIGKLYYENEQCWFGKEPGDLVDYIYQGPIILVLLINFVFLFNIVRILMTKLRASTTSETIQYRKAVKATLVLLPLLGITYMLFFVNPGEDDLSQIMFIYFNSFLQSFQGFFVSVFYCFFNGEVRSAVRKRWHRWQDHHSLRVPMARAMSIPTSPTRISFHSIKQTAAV
T3 sequence (P24387 whole entry): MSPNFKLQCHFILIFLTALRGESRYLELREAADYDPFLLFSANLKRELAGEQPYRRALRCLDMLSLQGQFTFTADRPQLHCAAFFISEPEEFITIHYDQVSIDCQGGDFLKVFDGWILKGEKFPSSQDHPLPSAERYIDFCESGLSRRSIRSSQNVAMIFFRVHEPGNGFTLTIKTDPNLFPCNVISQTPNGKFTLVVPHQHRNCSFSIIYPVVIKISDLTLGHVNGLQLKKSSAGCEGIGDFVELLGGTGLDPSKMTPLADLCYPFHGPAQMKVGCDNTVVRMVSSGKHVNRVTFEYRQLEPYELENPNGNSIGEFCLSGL

[10] = target: T3, Corticotropin-releasing factor receptor 2/Corticotropin-releasing factor-binding protein; assay: activators of CRF receptor 2 with binding protein – uHTS hits, confirmation (AID 602473); assay type: functional; settings: read-out: EC50_Mean

Sequence of Paired box protein Pax-8 (Q06710 whole entry): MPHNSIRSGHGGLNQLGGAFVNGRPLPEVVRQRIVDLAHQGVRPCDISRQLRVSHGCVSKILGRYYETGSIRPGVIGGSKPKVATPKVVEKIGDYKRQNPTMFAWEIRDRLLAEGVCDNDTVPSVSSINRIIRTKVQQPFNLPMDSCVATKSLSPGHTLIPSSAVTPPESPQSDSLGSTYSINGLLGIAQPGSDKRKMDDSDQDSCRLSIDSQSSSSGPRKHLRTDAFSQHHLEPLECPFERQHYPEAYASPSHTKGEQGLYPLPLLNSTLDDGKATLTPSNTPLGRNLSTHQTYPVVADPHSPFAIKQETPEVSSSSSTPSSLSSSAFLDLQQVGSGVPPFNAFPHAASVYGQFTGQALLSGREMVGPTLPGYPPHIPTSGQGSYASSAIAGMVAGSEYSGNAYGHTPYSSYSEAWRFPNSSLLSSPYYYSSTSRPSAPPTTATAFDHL

Structure (SMILES): Brc1ccc(-n2cc(-c3ccccc3)c3c(NN4CCOCC4)ncnc32)cc1
- AC50 (Paired box protein Pax-8): 35.8 µM (active)

Structure (SMILES): CCCCCc1ccc(-c2cn(CN3C(=O)c4ccccc4C3=O)nn2)cc1
- AC50 (INS1): 1.82 µM (active)

Structure (SMILES): Cc1ccc(=O)n(C(C(=O)NCc2ccco2)C(=O)c2ccc(F)cc2)c1 (configuration not stated)
- EC50 [1]: > 260 µM (inactive)

Structure (SMILES): CCOc1ccc(CN(CCCl)CCCl)cc1C(=O)OC
- EC50 [1]: 12.6 µM (active)

Structure (SMILES): CC(=O)c1c(N2CCOCC2)nc2ccc(Br)cc2c1-c1ccccc1
- EC50 [1]: 124 µM (active)

Structure (SMILES): CCC1CCCCN1C(=O)c1cc(COc2ccc(-n3cncn3)cc2)on1 (configuration not stated)
- AC50 (INS1): 8.64 µM (active)

Structure (SMILES): C=CCN1C(=O)NC(c2ccccc2)(C(F)(F)F)S/C1=C(\C#N)c1nnc(N2CCOCC2)n1-c1ccccc1 (configuration not stated)
- EC50 [1]: 22.1 µM (active)

Structure (SMILES): CCn1cc(Cl)c(C(=O)N2N=C(c3ccc4ccccc4c3)CC2c2ccccc2O)n1 (configuration not stated)
- EC50 [2]: 9.18 µM (active)
- EC50 (Streptokinase A): 13 µM (active)
- EC50 [3]: 1.66 µM (active)
- EC50 [4]: > 60 µM (inconclusive)
- EC50 (Streptococcus): > 150 µM (not active)

Structure (SMILES): COC(=O)C1=NN(C(=O)c2ccc(Cl)cc2)C(O)(c2ccccc2)C1 (configuration not stated)
- EC50 [5]: 29.9 µM (active)
- EC50 [6]: > 38 µM (not active)

Structure (SMILES): COc1ccc(N(CC(=O)NCCC2=CCCCC2)S(=O)(=O)c2ccccc2)cc1
- EC50 [1]: > 260 µM (inactive)

Structure (SMILES): O=C1NN(c2ccccc2)C(=O)/C1=C\c1ccc2c(c1)OCO2
- EC50 [1]: > 260 µM (inactive)

Structure (SMILES): CC1CCN(c2nc(CN3CCCCC3)nc3scc(-c4ccccc4)c23)CC1
- EC50 [2]: 16.9 µM (active)
- EC50 (Streptokinase A): 19.1 µM (inconclusive)
- EC50 (Streptococcus): > 150 µM (not active)

Structure (SMILES): COc1ccccc1-c1cc(-c2ccccc2)nc(SC(C(N)=O)c2ccccc2)c1C#N (configuration not stated)
- EC50 [7]: 5.97 µM (active)
- EC50 [8]: 7.47 µM (active)

Structure (SMILES): O=C(Nc1ccccc1C(=O)N1CCOCC1)c1ccncc1
- IC50 [9]: > 47.1 µM (inactive)
- EC50 [10]: > 53 µM (inactive)

Structure (SMILES): COCC(=O)Nc1nc2n(n1)C(c1ccccc1Cl)CC(c1ccc(OC)cc1)N2 (configuration not stated)
- EC50 [5]: > 160 µM (inactive)
- EC50 [6]: > 38 µM (not active)

Structure (SMILES): COc1ccc(CCn2c(C)cc(C(=O)COC(=O)c3ccc(NC(=O)CC#N)cc3)c2C)cc1
- EC50 [2]: 61.7 µM (active)
- EC50 (Streptokinase A): > 150 µM (not active)
- EC50 (Streptococcus): > 150 µM (not active)

Structure (SMILES): COc1ccc(CCNC(=O)c2c(N)n(CCN3CCOCC3)c3nc4ccccc4nc23)cc1
- EC50 [7]: 13.4 µM (active)
- EC50 [8]: 18.4 µM (active)

Structure (SMILES): CN(C)S(=O)(=O)Oc1cccc(C(=O)Nc2ccc(Cl)cc2)c1
- EC50 [5]: > 160 µM (inactive)
- EC50 [6]: 1.25 µM (active)

Structure (SMILES): CSc1nc2nccc(-c3ccc(-c4ccccc4)cc3)n2n1
- EC50 [2]: 3.79 µM (active)
- EC50 (Streptokinase A): > 150 µM (not active)
- EC50 (Streptococcus): 23.6 µM (active)

Structure (SMILES): COc1ccc(NC(=O)Cn2cnc3c(cnn3-c3ccc(C)c(C)c3)c2=O)c(OC)c1
- EC50 [7]: 29.5 µM (active)
- EC50 [8]: 27.8 µM (active)

Structure (SMILES): C/C=C/c1c(F)c(F)c(Oc2ccc(C(=O)O)cc2)c(F)c1F
- EC50 [1]: > 260 µM (inactive)

Structure (SMILES): Cc1occc1C(=O)N1CCCC(N2CCN(c3cccc(C(F)(F)F)c3)CC2)C1 (configuration not stated)
- AC50 (INS1): 111 µM (active)

Structure (SMILES): CC(C)CN(C(=O)COC(=O)C12CC3CC(CC(Cl)(C3)C1)C2)c1c(N)n(Cc2ccccc2)c(=O)[nH]c1=O
- AC50 (INS1): 7.15 µM (active)

Structure (SMILES): COCCCN1C(=O)C(O)=C(C(=O)c2ccc(OCC(C)C)cc2C)C1c1cccnc1 (configuration not stated)
- EC50 [5]: > 150 µM (inactive)
- EC50 [6]: > 38 µM (not active)

Structure (SMILES): O=C(OCc1ccc2c(c1)OCO2)c1ccc(S(=O)(=O)N2CCCC2)cc1
- IC50 [9]: > 47.1 µM (inactive)
- EC50 [10]: > 53 µM (inactive)

Structure (SMILES): Fc1ccccc1N=C(S)N1CCN(c2ccccn2)CC1
- EC50 [1]: > 260 µM (inactive)

Structure (SMILES): O=C(NC1CCCCC1)c1cc([N+](=O)[O-])n[nH]1
- EC50 [5]: 154 µM (active)
- EC50 [6]: 1.66 µM (active)

Structure (SMILES): O=C(Cc1nc2ccccc2nc1O)c1ccc(Cl)cc1
- EC50 [1]: 198 µM (inconclusive)

Structure (SMILES): O=C(c1ccc(Br)cc1)N1CCCC(c2nc(-c3cccs3)no2)C1 (configuration not stated)
- EC50 [1]: > 260 µM (inactive)

Structure (SMILES): CC(=O)OCC1=C(C(=O)O)N2C(=O)C(NC(=O)c3ccc(F)cc3)C2SC1 (configuration not stated)
- EC50 [2]: 3.94 µM (active)
- EC50 (Streptokinase A): > 150 µM (not active)
- EC50 (Streptococcus): 7.79 µM (active)

Structure (SMILES): CCOC(=O)c1c(C)oc2c1c(C(c1ccccc1)N1CCOCC1)c(O)c1ccccc12 (configuration not stated)
- EC50 [2]: 3.16 µM (active)
- EC50 (Streptokinase A): 0.886 µM (active)
- EC50 (Streptococcus): 5.32 µM (active)

Structure (SMILES): c1ccc2c(Nc3nc4c(s3)CCCC4)cccc2c1
- EC50 [2]: 14.4 µM (active)
- EC50 (Streptokinase A): 19.6 µM (inconclusive)
- EC50 (Streptococcus): > 150 µM (not active)

Structure (SMILES): O=C1CCC(/C=C/c2ccccc2)=NN1
- EC50 [1]: > 260 µM (inactive)

Structure (SMILES): COCCn1c(SCC(=O)NC2CCCCC2)nc2c(c1=O)SCC2
- EC50 [1]: > 260 µM (inactive)

Structure (SMILES): Nc1c(Cl)ncnc1N/N=C/c1ccccn1
- AC50 (INS1): 0.521 µM (active)

Structure (SMILES): O=C(COc1ccccc1)NCc1ccco1
- IC50 [9]: > 47.1 µM (inactive)
- EC50 [10]: > 53 µM (inactive)

Structure (SMILES): C[C@H]1CCCCO[C@H](CN(C)Cc2ccc(C(F)(F)F)cc2)[C@@H](C)CN([C@@H](C)CO)C(=O)c2cc(NC(=O)Nc3ccc(F)cc3)ccc2O1
- AC50 (Paired box protein Pax-8): 10.6 µM (active)

Structure (SMILES): C[C@H](CO)N1C[C@H](C)[C@H](CN(C)S(=O)(=O)c2cccs2)OCCCC[C@H](C)Oc2ccc(NC(=O)NC3CCCCC3)cc2C1=O
- AC50 (Paired box protein Pax-8): 10.7 µM (active)

Structure (SMILES): Cc1cccc(-c2ccc([C@H]3[C@H](CO)N4CCCCN(S(=O)(=O)c5ccccc5C)C[C@@H]34)cc2)c1
- AC50 (Paired box protein Pax-8): 11.4 µM (active)

Structure (SMILES): COc1cccc(/N=C/C2=C(O)OC3(CCCCC3)OC2=O)c1
- EC50 [1]: > 260 µM (inconclusive)
